Measured values taken from patent US8741834B2, “Dipeptoid prodrugs and the use thereof” (Bayer Intellectual Property GmbH, priority 2008, dated 2014).
Structures can show the parent of a compound that is named as a salt.

Legend:
[1] = Determination of the solubility in 5% strength aqueous dextrose solution; type: physicochemical; conditions: saline or isotonic, thermodynamic from solid, room temperature
Protocol: The test substance is suspended in 5% strength aqueous dextrose solution. This suspension is shaken at room temperature for 24 h. After ultracentrifugation at 224 000 g for 30 min, the supernatant is diluted with DMSO and analysed by HPLC. A two-point calibration plot of the test compound in DMSO is used for quantification.
Agilent 1100 with DAD (G1315A), quat. Pump (G1311A), autosampler CTC HTS PAL, degasser (G1322A) and column thermostat (G1316A); column: Phenomenex Gemini C18, 5 μm, 50 mm×2 mm; temperature: 40° C.; eluent A: water/phosphoric acid pH 2, eluent B: acetonitrile; flow rate: 0.7 ml/min; gradient: 0-0.5 min 85% A, 15% B; ramp 0.5-3 min 10% A, 90% B; 3-3.5 min 10% A, 90% B; ramp 3.5-4 min 85% A, 15% B; 4-5 min 85% A, 15% B.
Agilent 1100 with DAD (G1315A), quat. pump (G1311A), autosampler CTC HTS PAL, degasser (G1322A) and column thermostat (G1316A); column: VDSoptilab Kromasil 100 C18, 3.5 μm, 60 mm×2.1 mm; temperature: 30° C.; eluent A: water+5 ml of perchloric acid/liter, eluent B: acetonitrile; flow rate: 0.75 ml/min; gradient: 0-0.5 min 98% A, 2% B; ramp 0.5-4.5 min 10% A, 90% B; 4.5-6 min 10% A, 90% B; ramp 6.5-6.7 min 98% A, 2% B; 6.7-7.5 min 98% A, 2% B.

[2] = Stability in buffer at various pH values; type: physicochemical
Protocol: 0.3 mg of the test substance is weighed into a 2 ml HPLC vial and 0.5 ml of acetonitrile or acetonitrile/DMSO (9:1) is added. The substance is dissolved by putting the sample vessel in an ultrasonic bath for about 10 seconds. Then 0.5 ml of the respective buffer solution is added, and the sample is again treated in the ultrasonic bath.
pH 2: 0.03 mol of citric acid, 0.061 mol of sodium chloride and 0.0082 mol of hydrochoric acid ad 1 liter of water;
pH 4: 1 liter of Millipore water is adjusted to pH 4.0 with 1 N hydrochloric acid;
pH 5: 0.096 mol of citric acid and 0.2 mol of sodium hydroxide ad 1 liter of water;
pH 6: 0.06 mol of citric acid and 0.16 mol of sodium hydroxide ad 1 liter of water;
pH 7.4: 90.0 g of sodium chloride, 13.61 g of potassium dihydrogen phosphate and 83.35 g of 1 N sodium hydroxide solution are made up to 1 liter with water; this solution is then further diluted 1:10 with Millipore water.
pH 8: 0.013 mol of borax and 0.021 mol of hydrochloric acid ad 1 liter of water.
5 μl portions of the test solution are analyzed by HPLC for their content of unchanged test substance, and of active substance (A) formed, every hour over a period of 24 hours at 37° C. The percentage areas of the appropriate peaks are used for quantification.
The ratios of the peak areas (F) at the respective time points in relation to the peak areas at the starting time are shown in Table 2 for representative exemplary embodiments: […]

solubility thermodynamic at 24 h [1] [µg/mL]	% test substance after 4 h [F(t = 4 h) × 100/F(t = 0 h)] ([2]; pH 4, 37° C.) [%]	% test substance after 24 h [F(t = 24 h) × 100/F(t = 0 h)] ([2]; pH 4, 37° C.) [%]	% test substance after 4 h [F(t = 4 h) × 100/F(t = 0 h)] ([2]; pH 7.4, 37° C.) [%]	% test substance after 24 h [F(t = 24 h) × 100/F(t = 0 h)] ([2]; pH 7.4, 37° C.) [%]	% test substance after 4 h [F(t = 4 h) × 100/F(t = 0 h)] ([2]; pH 5, 37° C.) [%]	% test substance after 24 h [F(t = 24 h) × 100/F(t = 0 h)] ([2]; pH 5, 37° C.) [%]	SMILES
490							C[C@@H](O)[C@H](N)C(=O)NCCC(=O)OC[C@H](COc1ccc(-c2c(C#N)c(N)nc(SCc3coc(-c4ccc(Cl)cc4)n3)c2C#N)cc1)OC(=O)CCNC(=O)[C@@H](N)[C@@H](C)O [Example 39, (2S)-3-{4-[2-Amino-6-({[2-(4-chlorophenyl)-1,3-oxazol-4-yl]methyl}sulfanyl)-3,5-dicyanopyridin-4-yl]phenoxy}propane-1,2-diyl bis(3-{[(2S,3R)-2-amino-3-hydroxybutanoyl]amino}propanoate)bis(trifluoroacetic acid) salt]
	96	95	100	91			C[C@H](NC(=O)C[C@H](N)C(=O)O)C(=O)OC[C@H](COc1ccc(-c2c(C#N)c(N)nc(SCc3coc(-c4ccc(Cl)cc4)n3)c2C#N)cc1)OC(=O)[C@H](C)NC(=O)C[C@H](N)C(=O)O [Example 14, (2S,6S,9S,13S,17S)-2,17-Diamino-9-({4-[2-amino-6-({[2-(4-chlorophenyl)-1,3-oxazol-4-yl]methyl}sulfanyl)-3,5-dicyanopyridin-4-yl]phenoxy}methyl)-6,13-dimethyl-4,7,12,15-tetraoxo-8,11-dioxa-5,14-diazaoctadecane-1,18-dioic acid bis(trifluoroacetic acid) salt]
220							C[C@H](N)C(=O)NCCC(=O)OC[C@H](COc1ccc(-c2c(C#N)c(N)nc(SCc3coc(-c4ccc(Cl)cc4)n3)c2C#N)cc1)OC(=O)CCNC(=O)[C@H](C)N [Example 31, (2S)-3-{4-[2-Amino-6-({[2-(4-chlorophenyl)-1,3-oxazol-4-yl]methyl}sulfanyl)-3,5-dicyanopyridin-4-yl]phenoxy}propane-1,2-diyl bis(3-{[(2S)-2-aminopropanoyl)amino}propanoate)dihydrochloride]
	100	99	84	34	97	92	CC(C)[C@H](N)C(=O)N[C@@H](C)C(=O)OC[C@H](COc1ccc(-c2c(C#N)c(N)nc(SCc3coc(-c4ccc(Cl)cc4)n3)c2C#N)cc1)OC(=O)[C@H](C)NC(=O)[C@@H](N)C(C)C [Example 26, (2S)-3-{4-[2-Amino-6-({[2-(4-chlorophenyl)-1,3-oxazol-4-yl]methyl}sulfanyl)-3,5-dicyanopyridin-4-yl]phenoxy}propane-1,2-diyl (2S,2′S)-bis(2-{[(2S)-2-amino-3-methylbutanoyl]amino}propanoate)dihydrochloride]
750							C[C@H](N)C(=O)N[C@H](C(=O)OC[C@H](COc1ccc(-c2c(C#N)c(N)nc(SCc3coc(-c4ccc(Cl)cc4)n3)c2C#N)cc1)OC(=O)[C@@H](NC(=O)[C@H](C)N)[C@@H](C)O)[C@@H](C)O [Example 38, (2S)-3-{4-[2-Amino-6-({[2-(4-chlorophenyl)-1,3-oxazol-4-yl]methyl}sulfanyl)-3,5-dicyanopyridin-4-yl]phenoxy}propane-1,2-diyl (2S,3R,2′S,3′R)-bis(2-{[(2S)-2-aminopropanoyl]amino}-3-hydroxybutanoate)bis(trifluoroacetic acid) salt]
700							C[C@@H](O)[C@H](NC(=O)CN)C(=O)OC[C@H](COc1ccc(-c2c(C#N)c(N)nc(SCc3coc(-c4ccc(Cl)cc4)n3)c2C#N)cc1)OC(=O)[C@@H](NC(=O)CN)[C@@H](C)O [Example 36, (2S)-3-{4-[2-Amino-6-({[2-(4-chlorophenyl)-1,3-oxazol-4-yl]methyl}sulfanyl)-3,5-dicyanopyridin-4-yl]phenoxy}propane-1,2-diyl (2S,3R,2′S,3′R)-bis{2-[(aminoacetyl)amino]-3-hydroxybutanoate}bis(trifluoroacetic acid) salt]
	100	99	99	88			CC(C)[C@H](NC(=O)[C@H](C)N)C(=O)OC[C@H](COc1ccc(-c2c(C#N)c(N)nc(SCc3coc(-c4ccc(Cl)cc4)n3)c2C#N)cc1)OC(=O)[C@@H](NC(=O)[C@H](C)N)C(C)C [Example 28, (2S)-3-{4-[2-Amino-6-({[2-(4-chlorophenyl)-1,3-oxazol-4-yl]methyl}sulfanyl)-3,5-dicyanopyridin-4-yl]phenoxy}propane-1,2-diyl(2S,2′S)-bis(2-{[(2S)-2-aminopropanoyl]amino}-3-methylbutanoate)dihydrochloride]
610	98	94	2	0			C[C@H](NC(=O)[C@@H](N)CCCCN)C(=O)OC[C@H](COc1ccc(-c2c(C#N)c(N)nc(SCc3coc(-c4ccc(Cl)cc4)n3)c2C#N)cc1)OC(=O)[C@H](C)NC(=O)[C@@H](N)CCCCN [Example 35, (2S)-3-{4-[2-Amino-6-({[2-(4-chlorophenyl)-1,3-oxazol-4-yl]methyl}sulfanyl)-3,5-dicyanopyridin-4-yl]phenoxy}propane-1,2-diyl(2S,2′S)-bis(2-{[(2S)-2,6-diaminohexanoyl)amino}propanoate)tetrahydrochloride]
590							C[C@H](NC(=O)[C@@H](N)CCN)C(=O)OC[C@H](COc1ccc(-c2c(C#N)c(N)nc(SCc3coc(-c4ccc(Cl)cc4)n3)c2C#N)cc1)OC(=O)[C@H](C)NC(=O)[C@@H](N)CCN [Example 3, (2S)-3-{4-[2-Amino-6-({[2-(4-chlorophenyl)-1,3-oxazol-4-yl]methyl}sulfanyl)-3,5-dicyanopyridin-4-yl]phenoxy}propane-1,2-diyl (2S,2′S)-bis(2-{[(2S)-2,4-diaminobutanoyl]amino}propanoate)tetrahydrochloride]
	100	99	0	0			C[C@H](NC(=O)[C@@H](N)CCCCN)C(=O)OC[C@@H](COc1ccc(-c2c(C#N)c(N)nc(SCc3coc(-c4ccc(Cl)cc4)n3)c2C#N)cc1)OC(=O)[C@H](C)NC(=O)[C@@H](N)CCCCN [Example 34, (2R)-3-{4-[2-Amino-6-({[2-(4-chlorophenyl)-1,3-oxazol-4-yl]methyl}sulfanyl)-3,5-dicyanopyridin-4-yl]phenoxy}propane-1,2-diyl(2S,2′S)-bis(2-{[(2S)-2,6-diaminohexanoyl]amino}propanoate)tetrahydrochloride]
860							C[C@H](NC(=O)[C@@H](N)CCCN)C(=O)OC[C@H](COc1ccc(-c2c(C#N)c(N)nc(SCc3coc(-c4ccc(Cl)cc4)n3)c2C#N)cc1)OC(=O)[C@H](C)NC(=O)[C@@H](N)CCCN [Example 4, (2S)-3-{4-[2-Amino-6-({[2-(4-chlorophenyl)-1,3-oxazol-4-yl]methyl}sulfanyl)-3,5-dicyanopyridin-4-yl]phenoxy}propane-1,2-diyl (2S,2′S)-bis(2-{[(2S)-2,5-diaminopentanoyl]amino}propanoate)tetrahydrochloride]
